Tests used:
Assay in all cases: Ba/F3 drug screening, Cell Titer Glo, IC50 Mut/WT
Assay type in all cases: cell-based
EGFR R776H = target: T1, EGFR R776H (Homo sapiens, UniProt P00533, R776H); settings: Ba/F3 cells, EGFR R776H (PACC), Mut/WT
T1 construct: host or cells: Ba/F3

EGFR L747P = target: T2, EGFR L747P (Homo sapiens, UniProt P00533, L747P); settings: Ba/F3 cells, EGFR L747P (PACC), Mut/WT
T2 construct: expressed in transfected cells; host or cells: Ba/F3

EGFR Ex19del T790M C797S = target: T3, EGFR Ex19del T790M C797S (Homo sapiens, UniProt P00533, C797S/DEL746-750/T790M); settings: T790M-like-3R, 72 hours
T3 construct: expressed in transfected cells; host or cells: Ba/F3

EGFR I740dupIPVAK = settings: Ba/F3 cells, EGFR I740dupIPVAK (PACC), Mut/WT
EGFR E709K L858R = target: T4, EGFR E709K L858R (Homo sapiens, UniProt P00533, E709K/L858R); settings: Classical-Like, 72 hours
T4 construct: expressed in transfected cells; host or cells: Ba/F3 cells, retroviral pBabe-Puro vector

EGFR L833F = target: T5, EGFR L833F (Homo sapiens, UniProt P00533, L833F); settings: Classical-Like, 72 hours
T5 construct: expressed in transfected cells; host or cells: Ba/F3 cells, retroviral pBabe-Puro vector
Protocol: (§1) Data represent the ratio of the IC50 value for a given TKI for cells with a classical-like EGFR mutation to the IC50 value for cells with wildtype EGFR.
(§2) Ba/F3 cell generation, drug screening, and IC50 approximations. Ba/F3 cells were obtained as a gift from Dr. Gordon Mills (MD Anderson Cancer Center), and maintained in RPMI (Sigma) containing 10% FBS, 1% penicillin/streptomycin, and 10 ng/ml recombinant mIL-3 (R&D Biosystems). To establish stable Ba/F3 cell lines, Ba/F3 cells were transduced with retroviruses containing mutant EGFR plasmids for 12-24 hours.
(§3) After 48-72 hours of transduction, 2 μg/ml puromycin (Invitrogen) was added to Ba/F3 cell lines in complete RPMI. To select for EGFR positive cell lines, cells were stained with PE-EGFR (Biolegend) and sorted by FACS. After sorting, EGFR positive cells were maintained in RPMI containing 10% FBS, 1% penicillin/streptomycin, and 1 ng/ml EGF to support cell viability. […] Shortly, cells were plated in 384-well plates (Greiner Bio-One) at 2000-3000 cells per well in technical triplicate. Seven different concentrations of TKIs or DMSO vehicle were added to reach a final volume of 40 μL per well. After 72 hours, 11 μL of Cell Titer Glo (Promega) was added to each well. Plates were incubated for a minimum of 10 minutes, and bioluminescence was determined using a FLUOstar OPTIMA plate reader (BMG LABTECH). Raw bioluminescence values were normalized to DMSO control treated cells, and values were plotted in GraphPad Prism. […] Drug screens were performed in technical triplicate on each plate and either duplicate or triplicate biological replicates.

EGFR E709A G719S = target: T6, EGFR E709A G719S (Homo sapiens, UniProt P00533, E709A/G719S); settings: Ba/F3 cells, EGFR E709A G719S (PACC), Mut/WT
T6 construct: expressed in transfected cells; host or cells: Ba/F3
Protocol: (§4) Data represent the ratio of the IC50 value for a given TKI for cells with a PACC EGFR mutation to the IC50 value for cells with wildtype EGFR.
as §2
(§5) After 48-72 hours of transduction, 2 μg/ml puromycin (Invitrogen) was added to Ba/F3 cell lines in complete RPMI. To select for EGFR positive cell lines, cells were stained with PE-EGFR (Biolegend) and sorted by FACS. After sorting, EGFR positive cells were maintained in RPMI containing 10% FBS, 1% penicillin/streptomycin, and 1 ng/ml EGF to support cell viability. Drug screening was performed as previously described^41,42. Shortly, cells were plated in 384-well plates (Greiner Bio-One) at 2000-3000 cells per well in technical triplicate. Seven different concentrations of TKIs or DMSO vehicle were added to reach a final volume of 40 μL per well. After 72 hours, 11 μL of Cell Titer Glo (Promega) was added to each well. Plates were incubated for a minimum of 10 minutes, and bioluminescence was determined using a FLUOstar OPTIMA plate reader (BMG LABTECH). Raw bioluminescence values were normalized to DMSO control treated cells, and values were plotted in GraphPad Prism. […] Drug screens were performed in technical triplicate on each plate and either duplicate or triplicate biological replicates.

EGFR G724S = target: T7, EGFR G724S (Homo sapiens, UniProt P00533, G724S); settings: Ba/F3 cells, EGFR G724S (PACC), Mut/WT
T7 construct: expressed in transfected cells; host or cells: Ba/F3
Protocol: as §4, §2, §5

EGFR Ex19del G796S = target: T8, EGFR Ex19del G796S (Homo sapiens, UniProt P00533, DEL746-750/G796S); settings: Ba/F3 cells, EGFR Ex19del G796S (PACC), Mut/WT
T8 construct: expressed in transfected cells; host or cells: Ba/F3

EGFR V769L = target: T9, EGFR V769L (Homo sapiens, UniProt P00533, V769L); settings: Ba/F3 cells, EGFR V769L (PACC), Mut/WT
T9 construct: expressed in transfected cells; host or cells: Ba/F3

EGFR L858R S784F = target: T10, EGFR L858R S784F (Homo sapiens, UniProt P00533, L858R/S784F); settings: Classical-Like, 72 hours
T10 construct: expressed in transfected cells; host or cells: Ba/F3 cells, retroviral pBabe-Puro vector (vector made by GeneScript from EGFR L858R)
Protocol: as §1, §2, §3

EGFR Ex19del T790M L718V = target: T11, EGFR Ex19del T790M L718V (Homo sapiens, UniProt P00533, DEL746-750/L718V/T790M); settings: T790M-like-3S, 72 hours
T11 construct: expressed in transfected cells; host or cells: Ba/F3
Protocol: (§6) Data represent the ratio of the IC50 value for a given TKI for cells with a T790M-like-3S EGFR mutation to the IC50 value for cells with wildtype EGFR.
as §2, §5

EGFR D770insNPG = target: T12, EGFR D770insNPG (Homo sapiens, UniProt P00533, INS770NPG); settings: Ex20, 72 hours
T12 construct: expressed in transfected cells; host or cells: Ba/F3 cells, retroviral pBabe-Puro vector
Protocol: (§7) Data represent the ratio of the IC50 value for a given TKI for cells with an ex20ins EGFR mutation to the IC50 value for cells with wildtype EGFR.
as §2
(§8) After 48-72 hours of transduction, 2 μg/ml puromycin (Invitrogen) was added to Ba/F3 cell lines in complete RPMI. To select for EGFR positive cell lines, cells were stained with PE-EGFR (Biolegend) and sorted by FACS. After sorting, EGFR positive cells were maintained in RPMI containing 10% FBS, 1% penicillin/streptomycin, and 1 ng/ml EGF to support cell viability. Drug screening was performed as previously described^41,42. Shortly, cells were plated in 384-well plates (Greiner Bio-One) at 2000-3000 cells per well in technical triplicate. Seven different concentrations of TKIs or DMSO vehicle were added to reach a final volume of 40 μL per well. After 72 hours, 11 μL of Cell Titer Glo (Promega) was added to each well. Plates were incubated for a minimum of 10 minutes, and bioluminescence was determined using a FLUOstar OPTIMA plate reader (BMG LABTECH). Raw bioluminescence values were normalized to DMSO control treated cells, and values were plotted in GraphPad Prism. […] Drug screens were performed in technical triplicate on each plate and either duplicate or triplicate biological replicates. […] Statistical differences between groups were determined by ANOVA as described in the figure legends.

EGFR L858R T790M V843I = target: T13, EGFR L858R T790M V843I (Homo sapiens, UniProt P00533, L858R/T790M/V843I); settings: T790M-like-3S, 72 hours
T13 construct: expressed in transfected cells; host or cells: Ba/F3

EGFR S720P = target: T14, EGFR S720P (Homo sapiens, UniProt P00533, S720P); settings: Classical-Like, 72 hours
T14 construct: expressed in transfected cells; host or cells: Ba/F3 cells, retroviral pBabe-Puro vector (vector made by GeneScript from EGFR WT)

EGFR N771dupN G724S = target: T15, EGFR N771dupN G724S (Homo sapiens, UniProt P00533, DUP771-771/G724S); settings: Ex20, 72 hours
T15 construct: expressed in transfected cells; host or cells: Ba/F3 cells, retroviral pBabe-Puro vector (vector made by GeneScript from EGFR G724S, c.2313_2314insAAC)

EGFR L861Q = target: T16, EGFR L861Q (Homo sapiens, UniProt P00533, L861Q); settings: Classical-Like, 72 hours
T16 construct: expressed in transfected cells; host or cells: Ba/F3 cells, retroviral pBabe-Puro vector

EGFR G719S T790M = target: T17, EGFR G719S T790M (Homo sapiens, UniProt P00533, G719S/T790M); settings: T790M-like-3S, 72 hours
T17 construct: expressed in transfected cells; host or cells: Ba/F3
Protocol: as §6, §2, §5

EGFR S768I = target: T18, EGFR S768I (Homo sapiens, UniProt P00533, S768I); settings: Ba/F3 cells, EGFR S768I (PACC), Mut/WT
T18 construct: expressed in transfected cells; host or cells: Ba/F3

EGFR K754E = target: T19, EGFR K754E (Homo sapiens, UniProt P00533, K754E); settings: Classical-Like, 72 hours
T19 construct: expressed in transfected cells; host or cells: Ba/F3 cells, retroviral pBabe-Puro vector
Protocol: as §1, §2, §3

EGFR S768dupSVD V769M = target: T20, EGFR S768dupSVD V769M (Homo sapiens, UniProt P00533, INS768MDS/V769M); settings: Ex20, 72 hours
T20 construct: expressed in transfected cells; host or cells: Ba/F3 cells, retroviral pBabe-Puro vector (vector made by GeneScript from EGFR S768dupSVD, c.2305G > A)
Protocol: as §7, §2, §8

EGFR G719S = target: T21, EGFR G719S (Homo sapiens, UniProt P00533, G719S); settings: Ba/F3 cells, EGFR G719S (PACC), Mut/WT
T21 construct: expressed in transfected cells; host or cells: Ba/F3
Protocol: as §4, §2, §5

EGFR L747S = target: T22, EGFR L747S (Homo sapiens, UniProt P00533, L747S); settings: Ba/F3 cells, EGFR L747S (PACC), Mut/WT
T22 construct: expressed in transfected cells; host or cells: Ba/F3

EGFR G719A T790M = target: T23, EGFR G719A T790M (Homo sapiens, UniProt P00533, G719A/T790M); settings: T790M-like-3S, 72 hours
T23 construct: expressed in transfected cells; host or cells: Ba/F3
Protocol: as §6, §2, §5

SMILES	ratio of the IC50 value for cells with a PACC EGFR mutation to the IC50 value for cells with wildtype EGFR (EGFR R776H)	ratio of the IC50 value for cells with a PACC EGFR mutation to the IC50 value for cells with wildtype EGFR (EGFR L747P)	ratio of IC50 for cells with mutant EGFR to IC50 for cells with wildtype EGFR (Mut/WT) (EGFR Ex19del T790M C797S)	ratio of the IC50 value for cells with a PACC EGFR mutation to the IC50 value for cells with wildtype EGFR (EGFR I740dupIPVAK)	ratio of IC50 for cells with mutant EGFR to IC50 for cells with wildtype EGFR (Mut/WT) (EGFR E709K L858R)	ratio of IC50 for cells with mutant EGFR to IC50 for cells with wildtype EGFR (Mut/WT) (EGFR L833F)	ratio of the IC50 value for cells with a PACC EGFR mutation to the IC50 value for cells with wildtype EGFR (EGFR E709A G719S)	ratio of the IC50 value for cells with a PACC EGFR mutation to the IC50 value for cells with wildtype EGFR (EGFR G724S)	ratio of the IC50 value for cells with a PACC EGFR mutation to the IC50 value for cells with wildtype EGFR (EGFR Ex19del G796S)	ratio of the IC50 value for cells with a PACC EGFR mutation to the IC50 value for cells with wildtype EGFR (EGFR V769L)	ratio of IC50 for cells with mutant EGFR to IC50 for cells with wildtype EGFR (Mut/WT) (EGFR L858R S784F)	ratio of IC50 for cells with mutant EGFR to IC50 for cells with wildtype EGFR (Mut/WT) (EGFR Ex19del T790M L718V)	ratio of IC50 for cells with mutant EGFR to IC50 for cells with wildtype EGFR (Mut/WT) (EGFR D770insNPG)	ratio of IC50 for cells with mutant EGFR to IC50 for cells with wildtype EGFR (Mut/WT) (EGFR L858R T790M V843I)	ratio of IC50 for cells with mutant EGFR to IC50 for cells with wildtype EGFR (Mut/WT) (EGFR S720P)	ratio of IC50 for cells with mutant EGFR to IC50 for cells with wildtype EGFR (Mut/WT) (EGFR N771dupN G724S)	ratio of IC50 for cells with mutant EGFR to IC50 for cells with wildtype EGFR (Mut/WT) (EGFR L861Q)	ratio of IC50 for cells with mutant EGFR to IC50 for cells with wildtype EGFR (Mut/WT) (EGFR G719S T790M)	ratio of the IC50 value for cells with a PACC EGFR mutation to the IC50 value for cells with wildtype EGFR (EGFR S768I)	ratio of IC50 for cells with mutant EGFR to IC50 for cells with wildtype EGFR (Mut/WT) (EGFR K754E)	further results
C=CC(=O)Nc1cc(Nc2ncc(C(=O)OC(C)C)c(-c3cn(C)c4ccccc34)n2)c(OC)cc1N(C)CCN(C)C [TAK-788 (mobocertinib), mobocertinib]	2.853	5.991	117.8	7.185	0.008356	1.233	1.298	108.6	32.48	3.454	0.001484	3.032	1.211	1.649	0.111	1.553	0.8467	1.302	0.7766	0.1738	ratio of IC50 for cells with mutant EGFR to IC50 for cells with wildtype EGFR (Mut/WT) (EGFR S768dupSVD V769M): 0.5446; ratio of the IC50 value for cells with a PACC EGFR mutation to the IC50 value for cells with wildtype EGFR (EGFR G719S): 2.056; ratio of the IC50 value for cells with a PACC EGFR mutation to the IC50 value for cells with wildtype EGFR (EGFR L747S): 2.299; ratio of IC50 for cells with mutant EGFR to IC50 for cells with wildtype EGFR (Mut/WT) (EGFR G719A T790M): 0.4864
C=CC(=O)N[C@H]1C=C(C)c2c(-c3cnc4ccccc4c3)c3c(N)ncnc3n2C1 [TAS 6417]	0.09	0.1949	3.055	0.3555	0.002607	0.06886	0.03472	3.055	0.06554	0.159	0.001423	0.002884	0.0168	0.07336	0.01035	0.05113	0.02761	0.032	0.0846	0.004475	ratio of IC50 for cells with mutant EGFR to IC50 for cells with wildtype EGFR (Mut/WT) (EGFR S768dupSVD V769M): 0.02679; ratio of the IC50 value for cells with a PACC EGFR mutation to the IC50 value for cells with wildtype EGFR (EGFR G719S): 0.01675; ratio of the IC50 value for cells with a PACC EGFR mutation to the IC50 value for cells with wildtype EGFR (EGFR L747S): 0.06482; ratio of IC50 for cells with mutant EGFR to IC50 for cells with wildtype EGFR (Mut/WT) (EGFR G719A T790M): 0.01296

— US20240384350A1, “METHODS OF TREATING CANCER WITH KINASE INHIBITORS” (BOARD OF REGENTS, THE UNIVERSITY OF TEXAS SYSTEM, priority 2021, published 2024)
